PubChem BioAssay (NCI)
Where “and” joins values, the source holds several entries; their conditions need not be identical. Equal values may be shown once.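 Results reflect a 48-hour exposure of cells in 96-well plates to compound at five concentrations. At the GI50, growth is halved. The concentration for full growth arrest is given as TGI.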

Assays:
Test in all cases: NCI anticancer screen, dose series, 48 h
[1] = test system: CCRF-CEM leukemia
[2] = test system: BT-549 breast
[3] = test system: UACC-62 melanoma
[4] = test system: HCT-15 colon
[5] = test system: LOX IMVI melanoma
[6] = test system: U251 CNS
[7] = test system: RPMI-8226 leukemia
[8] = test system: PC-3 prostate
[9] = test system: SNB-19 CNS
[10] = test system: MCF7 breast

SMILES	TGI [1] [µM]	TGI [2] [µM]	TGI [3] [µM]	TGI [4] [µM]	TGI [5] [µM]	TGI [6] [µM]	TGI [7] [µM]	TGI [8] [µM]	TGI [9] [µM]	TGI [10] [µM]	GI50 [10]
O=C(c1cccs1)N(C(=O)N1CCCCC1)c1ccccc1	> 100	> 100	> 100	> 100	> 100	> 100	> 100	> 100	> 100	> 100	–
Cc1cc(C)c(N)c(CO)c1	> 100	> 100	> 90.2	> 100	> 100	> 100	> 100	> 100	> 100	> 100	7.28 µM and 16 µM
N#Cc1nc(-c2ccccn2)c(-c2ccccn2)nc1C#N	> 38.4	12.1	5.1	> 42	> 27.5	> 37.3	> 100	19.7	22	28	–
CC(=O)N1C(=O)/C(=C\C(=O)c2ccc(Cl)cc2)c2ccccc21	7.58	18.4	28.6	23.4	5.9	37.2	97.1	19.6	> 57.2	> 76.2	–
CC1=CCC(=O)[C@]2(C)C(CC(=O)O)[C@]3(C)C4=C(C)C(c5ccoc5)C[C@@H]4O[C@@H]3[C@H](O)[C@@H]12 (some centres undefined)	> 100	> 100	> 100	> 100	> 100	> 100	> 100	> 100	> 100	> 100	–
Cc1cccc2c1C(=O)/C(=C/c1ccccc1C(=O)O)C2	> 100	> 100	> 100	> 100	> 100	> 100	> 100	> 100	> 100	> 100	–
Cc1cc(=O)oc2c(CN(CCCl)CCCl)c(O)ccc12	31.7	78.5	71.2	> 100	> 100	> 100	63.6	> 100	> 100	> 100	–
C/C(=N/NC(=O)c1ccccc1Nc1ccccc1C(=O)N/N=C(\C)c1ccc(C)cc1)c1ccc(C)cc1	> 100	> 100	> 100	> 100	–	> 100	> 100	> 100	> 100	> 100	–
COc1ccc(C(OCC2OC(n3ccc(Oc4c(F)c(F)c(F)c(F)c4F)nc3=O)CC2OP(OCCC#N)N(C(C)C)C(C)C)(c2ccccc2)c2ccc(OC)cc2)cc1 (centres undefined)	> 100	> 100	> 100	> 100	> 100	> 100	> 100	> 100	> 100	> 100	–
C(=N\Nc1nnc(-c2nnc(N/N=C/c3ccccc3)o2)o1)/c1ccccc1	> 10	> 10	> 10	> 10	–	> 10	> 10	> 10	> 10	> 10	–
NS(=O)(=O)c1ccc(NS(=O)(=O)c2ccc(NC(=O)N(c3ccccc3)c3ccccc3)cc2)cc1	> 100	> 100	> 100	> 100	> 100	> 100	94.9	> 100	> 100	> 100	–
